# Laboratory results published in PubChem BioAssay (NCI).
#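 Step 1: Grow cells in 96-well plates. Step 2: Expose to compound for 48 hours at 5 concentrations. Step 3: Interpolate endpoints linearly; if unreached, use highest concentration. At the TGI there is no net growth.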
# Legend:
# Assay in all cases: NCI anticancer screen, dose series, 48 h
# HT29 colon = test system: HT29 colon
# HL-60(TB) leukemia = test system: HL-60(TB) leukemia
# SF-268 CNS = test system: SF-268 CNS
# TK-10 renal = test system: TK-10 renal
# HOP-18 NSCLC = test system: HOP-18 NSCLC
# NCI-H23 lung = test system: NCI-H23 lung
# OVCAR-8 ovarian = test system: OVCAR-8 ovarian
# A549 NSCLC = test system: A549 NSCLC
# UACC-62 melanoma = test system: UACC-62 melanoma
# CCRF-CEM leukemia = test system: CCRF-CEM leukemia
# SK-OV-3 ovarian = test system: SK-OV-3 ovarian
# SK-MEL-28 melanoma = test system: SK-MEL-28 melanoma
# LXFL 529 NSCLC = test system: LXFL 529 NSCLC
# SR leukemia = test system: SR leukemia
# KM12 colon = test system: KM12 colon
# UO-31 renal = test system: UO-31 renal
# UACC-257 melanoma = test system: UACC-257 melanoma
# OVCAR-5 ovarian = test system: OVCAR-5 ovarian
# HCC-2998 colon = test system: HCC-2998 colon
# SF-539 CNS = test system: SF-539 CNS
# DMS 114 small cell lung = test system: DMS 114 small cell lung
# HCT-15 colon = test system: HCT-15 colon
# CAKI-1 renal = test system: CAKI-1 renal
# NCI-H460 lung = test system: NCI-H460 lung
# OVCAR-3 ovarian = test system: OVCAR-3 ovarian
# NCI-H226 lung = test system: NCI-H226 lung
# DLD-1 colon = test system: DLD-1 colon
# HOP-62 NSCLC = test system: HOP-62 NSCLC
# EKVX NSCLC = test system: EKVX NSCLC
# XF 498 CNS = test system: XF 498 CNS
# NCI-H522 lung = test system: NCI-H522 lung
# SW-620 colon = test system: SW-620 colon
# M19-MEL melanoma = test system: M19-MEL melanoma
# KM20L2 colon = test system: KM20L2 colon
# SF-295 CNS = test system: SF-295 CNS
# M14 melanoma = test system: M14 melanoma
# LOX IMVI melanoma = test system: LOX IMVI melanoma
# SNB-19 CNS = test system: SNB-19 CNS
# RPMI-8226 leukemia = test system: RPMI-8226 leukemia
# MALME-3M melanoma = test system: MALME-3M melanoma
# SN12C renal = test system: SN12C renal
# OVCAR-4 ovarian = test system: OVCAR-4 ovarian
# ACHN renal = test system: ACHN renal
# A498 renal = test system: A498 renal
# DMS 273 small cell lung = test system: DMS 273 small cell lung
# HCT-116 colon = test system: HCT-116 colon
# HOP-92 NSCLC = test system: HOP-92 NSCLC
# SK-MEL-5 melanoma = test system: SK-MEL-5 melanoma
# COLO 205 colon = test system: COLO 205 colon
# 786-0 renal = test system: 786-0 renal
# U251 CNS = test system: U251 CNS
# RXF 393 renal = test system: RXF 393 renal
# IGROV1 ovarian = test system: IGROV1 ovarian
# K-562 leukemia = test system: K-562 leukemia
# SNB-75 CNS = test system: SNB-75 CNS
# SK-MEL-2 melanoma = test system: SK-MEL-2 melanoma
# SNB-78 CNS = test system: SNB-78 CNS
# MOLT-4 leukemia = test system: MOLT-4 leukemia
structure (smiles),measurement,setting,value
O=C(NCc1ccccc1)c1cc2ccc(O)c(O)c2cn1,TGI,HT29 colon,> 100 µM
same,TGI,HL-60(TB) leukemia,> 100 µM
same,TGI,SF-268 CNS,29.7 µM
same,TGI,TK-10 renal,> 100 µM
same,TGI,HOP-18 NSCLC,44.5 µM
same,TGI,NCI-H23 lung,25.9 µM
same,TGI,OVCAR-8 ovarian,23.9 µM
same,TGI,A549 NSCLC,> 100 µM
same,TGI,UACC-62 melanoma,33.5 µM
same,TGI,CCRF-CEM leukemia,> 100 µM
same,TGI,SK-OV-3 ovarian,> 100 µM
same,TGI,SK-MEL-28 melanoma,30.3 µM
same,TGI,LXFL 529 NSCLC,30.6 µM
same,TGI,SR leukemia,> 100 µM
same,TGI,KM12 colon,> 100 µM
same,TGI,UO-31 renal,36.5 µM
same,TGI,UACC-257 melanoma,29.1 µM
same,TGI,OVCAR-5 ovarian,58.3 µM
same,TGI,HCC-2998 colon,> 100 µM
same,TGI,SF-539 CNS,32.6 µM
same,TGI,DMS 114 small cell lung,26.8 µM
same,TGI,HCT-15 colon,> 100 µM
same,TGI,CAKI-1 renal,33.6 µM
same,TGI,NCI-H460 lung,39.1 µM
same,TGI,OVCAR-3 ovarian,41.6 µM
same,TGI,NCI-H226 lung,> 100 µM
same,TGI,DLD-1 colon,37.8 µM
same,TGI,HOP-62 NSCLC,47.9 µM
same,TGI,EKVX NSCLC,> 100 µM
same,TGI,XF 498 CNS,31.7 µM
same,TGI,NCI-H522 lung,30.9 µM
same,TGI,SW-620 colon,37.4 µM
same,TGI,M19-MEL melanoma,3.23 µM
same,TGI,KM20L2 colon,> 100 µM
same,TGI,SF-295 CNS,31.5 µM
same,TGI,M14 melanoma,19.3 µM
same,TGI,LOX IMVI melanoma,16.2 µM
same,TGI,SNB-19 CNS,> 100 µM
same,TGI,RPMI-8226 leukemia,> 100 µM
same,TGI,MALME-3M melanoma,30.4 µM
same,TGI,SN12C renal,31.7 µM
same,TGI,OVCAR-4 ovarian,30.3 µM
same,TGI,ACHN renal,29.4 µM
same,TGI,A498 renal,> 100 µM
same,TGI,DMS 273 small cell lung,32.3 µM
same,TGI,HCT-116 colon,32.1 µM
same,TGI,HOP-92 NSCLC,33.3 µM
same,TGI,SK-MEL-5 melanoma,23.3 µM
same,TGI,COLO 205 colon,> 100 µM
same,TGI,786-0 renal,33.1 µM
same,TGI,U251 CNS,52.8 µM
same,TGI,RXF 393 renal,30.5 µM
same,TGI,IGROV1 ovarian,44.5 µM
same,TGI,K-562 leukemia,> 100 µM
same,TGI,SNB-75 CNS,32.9 µM
same,TGI,SK-MEL-2 melanoma,25.4 µM
same,TGI,SNB-78 CNS,40.6 µM
CC(=O)CC(=O)Nc1ccccc1[N+](=O)[O-],TGI,HT29 colon,> 100 µM
same,TGI,HL-60(TB) leukemia,> 100 µM
same,TGI,SF-268 CNS,> 100 µM
same,TGI,TK-10 renal,> 100 µM
same,TGI,HOP-18 NSCLC,> 100 µM
same,TGI,NCI-H23 lung,> 100 µM
same,TGI,OVCAR-8 ovarian,> 100 µM
same,TGI,A549 NSCLC,> 100 µM
same,TGI,UACC-62 melanoma,> 100 µM
same,TGI,CCRF-CEM leukemia,> 100 µM
same,TGI,SK-OV-3 ovarian,> 100 µM
same,TGI,SK-MEL-28 melanoma,> 100 µM
same,TGI,LXFL 529 NSCLC,> 100 µM
same,TGI,SR leukemia,> 100 µM
same,TGI,KM12 colon,> 100 µM
same,TGI,UO-31 renal,> 100 µM
same,TGI,UACC-257 melanoma,> 100 µM
same,TGI,MOLT-4 leukemia,> 100 µM
same,TGI,OVCAR-5 ovarian,> 100 µM
same,TGI,HCC-2998 colon,> 100 µM
same,TGI,SF-539 CNS,> 100 µM
same,TGI,DMS 114 small cell lung,> 100 µM
same,TGI,HCT-15 colon,> 100 µM
same,TGI,CAKI-1 renal,> 100 µM
same,TGI,NCI-H460 lung,> 100 µM
same,TGI,OVCAR-3 ovarian,> 100 µM
same,TGI,NCI-H226 lung,> 100 µM
same,TGI,DLD-1 colon,> 100 µM
same,TGI,HOP-62 NSCLC,> 100 µM
same,TGI,EKVX NSCLC,> 100 µM
same,TGI,XF 498 CNS,> 100 µM
same,TGI,NCI-H522 lung,> 100 µM
same,TGI,SW-620 colon,> 100 µM
same,TGI,M19-MEL melanoma,> 100 µM
same,TGI,KM20L2 colon,> 100 µM
same,TGI,SF-295 CNS,> 100 µM
same,TGI,M14 melanoma,> 100 µM
same,TGI,SNB-19 CNS,> 100 µM
same,TGI,RPMI-8226 leukemia,> 100 µM
same,TGI,MALME-3M melanoma,> 100 µM
same,TGI,SN12C renal,> 100 µM
same,TGI,OVCAR-4 ovarian,> 100 µM
same,TGI,ACHN renal,> 100 µM
same,TGI,A498 renal,> 100 µM
same,TGI,DMS 273 small cell lung,> 100 µM
same,TGI,HCT-116 colon,> 100 µM
same,TGI,HOP-92 NSCLC,> 100 µM
same,TGI,SK-MEL-5 melanoma,> 100 µM
same,TGI,COLO 205 colon,> 100 µM
same,TGI,786-0 renal,> 100 µM
same,TGI,U251 CNS,> 100 µM
same,TGI,RXF 393 renal,> 100 µM
same,TGI,IGROV1 ovarian,> 100 µM
same,TGI,K-562 leukemia,> 100 µM
same,TGI,SNB-75 CNS,> 100 µM
same,TGI,SK-MEL-2 melanoma,> 100 µM
same,TGI,SNB-78 CNS,> 100 µM
COC(=O)[C@@]12C(=O)CCC(=O)C1C1C(=CC2C)O[C@@H]2OC3(CCCCC3)O[C@H]12 (some centres not stated),TGI,HT29 colon,> 100 µM
same,TGI,HL-60(TB) leukemia,59.1 µM
same,TGI,SF-268 CNS,> 100 µM
same,TGI,TK-10 renal,> 100 µM
same,TGI,HOP-18 NSCLC,> 100 µM
same,TGI,NCI-H23 lung,> 100 µM
same,TGI,OVCAR-8 ovarian,> 80.2 µM
same,TGI,A549 NSCLC,> 100 µM
same,TGI,UACC-62 melanoma,> 100 µM
same,TGI,CCRF-CEM leukemia,> 81 µM
same,TGI,SK-OV-3 ovarian,> 100 µM
same,TGI,SK-MEL-28 melanoma,> 100 µM
same,TGI,LXFL 529 NSCLC,> 100 µM
same,TGI,SR leukemia,58.8 µM
same,TGI,KM12 colon,> 100 µM
same,TGI,UO-31 renal,> 100 µM
same,TGI,UACC-257 melanoma,> 100 µM
same,TGI,MOLT-4 leukemia,70.5 µM
same,TGI,OVCAR-5 ovarian,> 100 µM
same,TGI,HCC-2998 colon,> 100 µM
same,TGI,SF-539 CNS,> 100 µM
same,TGI,DMS 114 small cell lung,> 100 µM
same,TGI,HCT-15 colon,> 100 µM
same,TGI,CAKI-1 renal,> 100 µM
same,TGI,NCI-H460 lung,> 100 µM
same,TGI,OVCAR-3 ovarian,> 100 µM
same,TGI,NCI-H226 lung,> 100 µM
same,TGI,DLD-1 colon,> 100 µM
same,TGI,HOP-62 NSCLC,> 100 µM
same,TGI,EKVX NSCLC,> 100 µM
same,TGI,XF 498 CNS,> 93.6 µM
same,TGI,NCI-H522 lung,38.1 µM
same,TGI,SW-620 colon,> 100 µM
same,TGI,M19-MEL melanoma,> 100 µM
same,TGI,KM20L2 colon,> 100 µM
same,TGI,SF-295 CNS,> 100 µM
same,TGI,M14 melanoma,> 100 µM
same,TGI,LOX IMVI melanoma,> 100 µM
same,TGI,SNB-19 CNS,> 100 µM
same,TGI,RPMI-8226 leukemia,83.2 µM
same,TGI,MALME-3M melanoma,> 100 µM
same,TGI,SN12C renal,> 100 µM
same,TGI,OVCAR-4 ovarian,> 100 µM
same,TGI,ACHN renal,> 100 µM
same,TGI,A498 renal,> 100 µM
same,TGI,DMS 273 small cell lung,> 100 µM
same,TGI,HCT-116 colon,> 100 µM
same,TGI,HOP-92 NSCLC,> 100 µM
same,TGI,SK-MEL-5 melanoma,> 100 µM
same,TGI,COLO 205 colon,> 100 µM
same,TGI,786-0 renal,> 100 µM
same,TGI,U251 CNS,> 100 µM
same,TGI,RXF 393 renal,> 100 µM
same,TGI,IGROV1 ovarian,> 100 µM
same,TGI,K-562 leukemia,> 100 µM
same,TGI,SNB-75 CNS,> 100 µM
same,TGI,SK-MEL-2 melanoma,> 100 µM
same,TGI,SNB-78 CNS,> 100 µM
